This is an account of results in patent US8188098B2, “GPR119 receptor agonists” (Hoffmann-La Roche Inc., priority 2008, dated 2012).

The target of the assay is T1, GPR119 receptor (Mesocricetus auratus, UniProt A0A1U8CD06).
T1 construct: which endogenously express the GPR119 receptor; host or cells: HIT-T15 hamster pancreatic islet cells
T1 sequence (A0A1U8CD06 1-334): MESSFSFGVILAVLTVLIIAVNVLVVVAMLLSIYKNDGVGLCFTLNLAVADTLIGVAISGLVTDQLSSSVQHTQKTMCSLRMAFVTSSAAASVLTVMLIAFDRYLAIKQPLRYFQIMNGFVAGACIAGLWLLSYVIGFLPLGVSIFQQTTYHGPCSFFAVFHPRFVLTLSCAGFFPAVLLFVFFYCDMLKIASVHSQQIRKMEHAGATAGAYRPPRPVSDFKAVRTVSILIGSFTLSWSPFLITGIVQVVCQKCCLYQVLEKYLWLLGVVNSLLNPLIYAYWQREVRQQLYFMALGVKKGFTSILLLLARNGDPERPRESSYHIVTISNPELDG
In words: cAMP assay in HIT-T15 hamster pancreatic islet cells (functional agonist activity). The class given is cell-based. The note with it: HIT-T15 cells endogenously expressing GPR119; 30 min at 25° C.; intracellular cAMP. How it is done:
The functional agonist activities of compounds of the invention were characterized using a cAMP assay in HIT-T15 hamster pancreatic islet cells (American Type Culture Collection, Manassas, Va., USA) which endogenously express the GPR119 receptor. The cells were cultured in Kaighn's modification of Ham's F12 medium (Invitrogen Corporation, Carlsbad, Calif., USA) containing 10% horse serum, 2.5% FBS, and 1% Pen/Strep and grown in 225 cm^2 tissue culture flasks until they reached 75-85% confluence.
The cells were harvested 24 h prior to assay with 5 ml Versene®, washed with Kaighn/F12 medium and then plated into white 384-well plates (9000 cells/well) containing Kaighn/F12 medium. Prior to assay, the culture medium was replaced with a Kaighn/F12 medium without phenol red (50 μL/well) containing 0.5 mM 3-isobutyl-1-methylxanthine, 0.5 mg/ml BSA. The cells were incubated in the dark for 30 min at 25° C. in the absence or presence of varying concentrations of agonist (1 μL, 100% DMSO). The incubation media was discarded and replaced with the assay lysis buffer (50 μL/well) provided in the Tropix cAMP-Screen® kit (Applied Biosystems, Foster City, Calif., USA) and the plates incubated for 45 min at 37° C. The intracellular levels of cAMP generated in the HIT-T 15 cells were measured using the Tropix kit. In brief, 20 μL of the lysate was transferred into pre-coated antibody plates (384-well; Tropix kit) along with 10 μL of alkaline phosphatase conjugate and 20 μL of anti-cAMP antibody and the plates were incubated for 1 h at room temperature while shaking. The plates were then washed 5 times with wash buffer (70 μL) and tapped dry. CSPD®/Sapphire-II™ RTU substrate/enhancer solution (Applied Biosystems, Foster City, Calif., USA; 30 μL) was added and the plates were incubated for 45 min at room temperature while shaking. The signal generated was measured using a Wallac Victor V Luminometer (PerkinElmer Life And Analytical Sciences, Inc., Waltham, Mass., USA; 1 sec/well). EC50 values were calculated using the XLFit program (ID Business Solutions Ltd., Guildford, Surrey, UK).
Background: Cyclic AMP is a second messenger, typically raised through Gs and lowered through Gi signalling.
The EC50 is the concentration needed to bring the measured effect to its halfway point. The low end stands for greater potency, the high end for weaker potency. With `Cc1ncccc1Oc1ncnc2c1cnn2C1CCN(C(=O)Oc2ccccc2)CC1` [Example 122, 4-[4-(2-Methyl-pyridin-3-yloxy)-pyrazolo[3,4-d]pyrimidin-1-yl]-piperidine-1-carboxylic acid phenyl ester], the EC50 was 1.1 µM. For `CC(C)CC(=O)N1CCC(n2ncc3c(Oc4ccc(S(C)(=O)=O)cc4)ncnc32)CC1` [Example 142, 1-{4-[4-(4-Methanesulfonyl-phenoxy)-pyrazolo[3,4-d]pyrimidin-1-yl]-piperidin-1-yl}-3-methyl-butan-1-one], the response was half-maximal at 0.33 µM (EC50). For the compound `CC(C)(C)OC(=O)N1CCCC(n2ncc3c(Oc4ccc(S(C)(=O)=O)cc4)ncnc32)C1` (racemic) [Example 87, 3-[4-(4-Methanesulfonyl-phenoxy)-pyrazolo[3,4-d]pyrimidin-1-yl]-piperidine-1-carboxylic acid tert-butyl ester], the EC50 came out at 0.37 µM. In turn, `CC(C)(C)OC(=O)N1CCC(n2ncc3c(Oc4ccc(-n5ncnn5)cc4)ncnc32)CC1` [Example 82, 4-[4-(4-Tetrazol-2-yl-phenoxy)-pyrazolo[3,4-d]pyrimidin-1-yl]-piperidine-1-carboxylic acid tert-butyl ester] returned an EC50 of 1.8 µM. The compound `CC(C)(OC(=O)N1CCC(n2ncc3c(Oc4ccc(S(C)(=O)=O)cc4)ncnc32)CC1)C(Cl)(Cl)Cl` [Example 114, 4-[4-(4-Methanesulfonyl-phenoxy)-pyrazolo[3,4-d]pyrimidin-1-yl]-piperidine-1-carboxylic acid 2,2,2-trichloro-1,1-dimethyl-ethyl ester] returned an EC50 of 0.044 µM. In turn, `CC(C)(C)OC(=O)N1CCC(n2ncc3c(Oc4ccc(Cl)cc4Cl)ncnc32)CC1` [Example 38, 4-[4-(2,4-Dichloro-phenoxy)-pyrazolo[3,4-d]pyrimidin-1-yl]-piperidine-1-carboxylic acid tert-butyl ester] showed an EC50 of 0.49 µM. Compared with the last compound, the EC50 is about 11-fold higher. For the compound `CC(C)(C)OC(=O)N1CCC(n2ncc3c(Oc4cccnc4)ncnc32)CC1` [Example 91, 4-[4-(Pyridin-3-yloxy)-pyrazolo[3,4-d]pyrimidin-1-yl]-piperidine-1-carboxylic acid tert-butyl ester], the EC50 turned out to be 1.2 µM. The compound `CCOC(=O)N1CCC(n2ncc3c(Oc4ccc(S(C)(=O)=O)cc4F)ncnc32)CC1` [Example 14, 4-[4-(2-Fluoro-4-methanesulfonyl-phenoxy)-pyrazolo[3,4-d]pyrimidin-1-yl]-piperidine-1-carboxylic acid ethyl ester] registered an EC50 of 0.14 µM. Then `Cc1nc(-n2cncn2)ccc1Nc1ncnc2c1cnn2C1CCN(C(=O)OC(C)(C)C)CC1` [Example 9, 4-[4-(2-Methyl-6-[1,2,4]triazol-1-yl-pyridin-3-ylamino)-pyrazolo[3,4-d]pyrimidin-1-yl]-piperidine-1-carboxylic acid tert-butyl ester], with 2.4 µM. Then `CC(C)c1noc(C2CCC(n3ncc4c(Oc5ccc(S(C)(=O)=O)cc5F)ncnc43)CC2)n1` (centres unmarked) [Example 131, 4-(2-Fluoro-4-methanesulfonyl-phenoxy)-1-[4-(3-isopropyl-[1,2,4]oxadiazol-5-yl)-cyclohexyl]-1H-pyrazolo[3,4-d]pyrimidine], with 0.39 µM; and `N#Cc1ccccc1Oc1ncnc2c1cnn2C1CCN(C(=O)OC2CCCC2)CC1` [Example 118, 4-[4-(2-Cyano-phenoxy)-pyrazolo[3,4-d]pyrimidin-1-yl]-piperidine-1-carboxylic acid cyclopentyl ester], with 0.34 µM. Then `CS(=O)(=O)c1ccc(Oc2ncnc3c2cnn3C2CCN(C(=O)OC(CF)CF)CC2)cc1` [Example 109, 4-[4-(4-Methanesulfonyl-phenoxy)-pyrazolo[3,4-d]pyrimidin-1-yl]-piperidine-1-carboxylic acid 2-fluoro-1-fluoromethyl-ethyl ester], with 0.68 µM; and `CC(C)(C)OC(=O)N1CCC(n2ncc3c(Oc4cc(F)c(F)cc4C#N)ncnc32)CC1` [Example 50, 4-[4-(2-Cyano-4,5-difluoro-phenoxy)-pyrazolo[3,4-d]pyrimidin-1-yl]-piperidine-1-carboxylic acid tert-butyl ester], with 0.69 µM. `Cc1ncccc1Oc1ncnc2c1cnn2C1CCN(C(=O)Oc2ccc([N+](=O)[O-])cc2)CC1` [Example 123, 4-[4-(2-Methyl-pyridin-3-yloxy)-pyrazolo[3,4-d]pyrimidin-1-yl]-piperidine-1-carboxylic acid 4-nitro-phenyl ester] gave an EC50 of 2.7 µM. `CN(C)S(=O)(=O)c1ccc(Oc2ncnc3c2cnn3C2CCN(C(=O)OC(C)(C)C)CC2)cc1` [Example 57, 4-[4-(4-Dimethylsulfamoyl-phenoxy)-pyrazolo[3,4-d]pyrimidin-1-yl]-piperidine-1-carboxylic acid tert-butyl ester] came in with an EC50 of 0.3 µM. To `CS(=O)(=O)c1ccc(Oc2ncnc3c2cnn3C2CCN(C(=O)c3cc(Cl)cc(Cl)c3)CC2)cc1` [Example 150, (3,5-Dichloro-phenyl)-{4-[4-(4-methanesulfonyl-phenoxy)-pyrazolo[3,4-d]pyrimidin-1-yl]-piperidin-1-yl}-methanone] belongs 2.1 µM; to `CC(=O)c1ccc(Oc2ncnc3c2cnn3C2CCN(C(=O)OC(C)(C)C)CC2)cc1` [Example 64, 4-[4-(4-Acetyl-phenoxy)-pyrazolo[3,4-d]pyrimidin-1-yl]-piperidine-1-carboxylic acid tert-butyl ester], 0.15 µM; to `Cc1nc(S(C)(=O)=O)ccc1Oc1ncnc2c1cnn2C1CCN(C(=O)OC(C)(C)C)CC1` [Example 98, 4-[4-(6-Methanesulfonyl-2-methyl-pyridin-3-yloxy)-pyrazolo[3,4-d]pyrimidin-1-yl]-piperidine-1-carboxylic acid tert-butyl ester], 0.096 µM. `CC(C)(C)OC(=O)N1CCC(n2ncc3c(Oc4ccccc4F)ncnc32)CC1` [Example 32, 4-[4-(2-Fluoro-phenoxy)-pyrazolo[3,4-d]pyrimidin-1-yl]-piperidine-1-carboxylic acid tert-butyl ester] came in with an EC50 of 0.19 µM.

Compound `CC(C)(C)OC(=O)N1CCC(n2ncc3c(Oc4ccc(-c5ccsc5)cc4)ncnc32)CC1` [Example 86, 4-[4-(4-Thiophen-3-yl-phenoxy)-pyrazolo[3,4-d]pyrimidin-1-yl]-piperidine-1-carboxylic acid tert-butyl ester] showed a concentration giving a half-maximal response (EC50) of 0.49 µM. This EC50 lies about 2.6-fold higher than the previous one. Then `CC(C)OC(=O)N1CCC(n2ncc3c(Oc4c(C#N)ccc(F)c4F)ncnc32)CC1` [Example 20, 4-[4-(6-Cyano-2,3-difluoro-phenoxy)-pyrazolo[3,4-d]pyrimidin-1-yl]-piperidine-1-carboxylic acid isopropyl ester], with 0.57 µM; and `Cc1ncccc1Oc1ncnc2c1cnn2C1CCN(C(=O)OC(C)C)CC1` [Example 27, 4-[4-(2-Methyl-pyridin-3-yloxy)-pyrazolo[3,4-d]pyrimidin-1-yl]-piperidine-1-carboxylic acid isopropyl ester], with 0.85 µM; and `CC(C)(C)OC(=O)N1CCC(n2ncc3c(Oc4cccc5ncccc45)ncnc32)CC1` [Example 71, 4-[4-(Quinolin-5-yloxy)-pyrazolo[3,4-d]pyrimidin-1-yl]-piperidine-1-carboxylic acid tert-butyl ester], with 0.75 µM. In the case of `CC(C)(C)OC(=O)N1CCC(n2ncc3c(Oc4ccc5ccc(=O)oc5c4)ncnc32)CC1` [Example 75, 4-[4-(2-Oxo-2H-chromen-7-yloxy)-pyrazolo[3,4-d]pyrimidin-1-yl]-piperidine-1-carboxylic acid tert-butyl ester], the midpoint of the response, the EC50, lay at 1.8 µM. This EC50 is about 2.4-fold higher than that of the compound before. To `CS(=O)(=O)c1ccc(Oc2ncnc3c2cnn3C2CCN(Cc3cccc(Cl)c3)CC2)cc1` [Example 158, 1-[1-(3-Chloro-benzyl)-piperidin-4-yl]-4-(4-methanesulfonyl-phenoxy)-1H-pyrazolo[3,4-d]pyrimidine] belongs 0.28 µM; to `Cc1nnnn1-c1ccc(Oc2ncnc3c2cnn3C2CCN(C(=O)OC(C)(C)C)CC2)cc1` [Example 84, 4-{4-[4-(5-Methyl-tetrazol-1-yl)-phenoxy]-pyrazolo[3,4-d]pyrimidin-1-yl}-piperidine-1-carboxylic acid tert-butyl ester], 0.24 µM.
